{
  "source": "paper PMC6430017",
  "about": "“Structural and chemical insights into the covalent-allosteric inhibition of the protein kinase Akt” (Chemical Science, 2019)",
  "key": {"NEK1": {"biological_target": "T1, NEK1 (Homo sapiens, UniProt Q96PY6)", "T1 sequence (Q96PY6 1-1258)": "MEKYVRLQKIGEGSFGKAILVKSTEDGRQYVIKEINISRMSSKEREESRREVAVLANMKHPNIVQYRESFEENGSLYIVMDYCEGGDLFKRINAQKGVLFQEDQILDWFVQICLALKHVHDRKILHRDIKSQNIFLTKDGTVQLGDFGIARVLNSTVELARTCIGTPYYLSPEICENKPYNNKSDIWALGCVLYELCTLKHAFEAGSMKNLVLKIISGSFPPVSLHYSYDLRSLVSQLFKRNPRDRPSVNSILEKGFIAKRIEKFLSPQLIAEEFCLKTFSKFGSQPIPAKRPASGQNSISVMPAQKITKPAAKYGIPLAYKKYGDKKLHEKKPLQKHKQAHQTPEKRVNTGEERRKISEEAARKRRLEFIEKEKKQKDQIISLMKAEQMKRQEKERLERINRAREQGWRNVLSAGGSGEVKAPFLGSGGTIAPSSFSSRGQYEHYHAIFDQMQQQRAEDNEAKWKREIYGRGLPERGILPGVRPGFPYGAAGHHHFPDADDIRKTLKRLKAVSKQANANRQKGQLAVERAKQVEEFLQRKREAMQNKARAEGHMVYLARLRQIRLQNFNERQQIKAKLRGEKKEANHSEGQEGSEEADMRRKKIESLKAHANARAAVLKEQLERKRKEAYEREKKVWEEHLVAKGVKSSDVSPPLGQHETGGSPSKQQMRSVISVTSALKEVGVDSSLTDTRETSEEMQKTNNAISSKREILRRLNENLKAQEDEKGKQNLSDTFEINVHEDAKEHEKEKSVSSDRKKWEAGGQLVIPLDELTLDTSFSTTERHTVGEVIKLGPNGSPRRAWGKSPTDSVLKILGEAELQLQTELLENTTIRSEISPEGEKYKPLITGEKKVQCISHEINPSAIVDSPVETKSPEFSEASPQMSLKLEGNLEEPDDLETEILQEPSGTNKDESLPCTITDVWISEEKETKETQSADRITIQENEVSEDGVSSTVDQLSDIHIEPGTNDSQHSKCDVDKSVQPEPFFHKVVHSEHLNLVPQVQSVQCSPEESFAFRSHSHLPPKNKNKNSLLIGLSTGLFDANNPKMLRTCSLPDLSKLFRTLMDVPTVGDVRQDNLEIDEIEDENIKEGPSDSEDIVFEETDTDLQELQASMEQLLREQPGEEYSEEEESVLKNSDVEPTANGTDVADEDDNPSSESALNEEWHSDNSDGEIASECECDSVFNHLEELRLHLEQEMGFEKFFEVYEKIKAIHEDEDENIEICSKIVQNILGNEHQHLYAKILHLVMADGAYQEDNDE", "experiment": "SelectScreen Z'LYTE kinase profiling", "type": "biochemical", "details": "ATP at apparent KM", "procedure": "(§1) protein kinases at a compound concentration of 1 µM. Measurements were performed in duplicates\n(§2) and at the particular apparent ATP KM of each individual kinase employing the activity based Z’LYTE®\n(§3) kinase assay of the SelectScreen® Kinase Profiling Services (ThermoFisher Scientific).\n(§4) kinases at a compound concentration of 1 µM. Measurements were performed in duplicates and at\n(§5) the particular apparent ATP KM of each individual kinase employing the activity based Z’LYTE® kinase\n(§6) assay of the SelectScreen® Kinase Profiling Services (ThermoFisher Scientific)."}, "MARK1 (MARK)": {"biological_target": "MARK1 (MARK) (Homo sapiens, UniProt Q9P0L2)", "sequence (Q9P0L2 whole entry)": "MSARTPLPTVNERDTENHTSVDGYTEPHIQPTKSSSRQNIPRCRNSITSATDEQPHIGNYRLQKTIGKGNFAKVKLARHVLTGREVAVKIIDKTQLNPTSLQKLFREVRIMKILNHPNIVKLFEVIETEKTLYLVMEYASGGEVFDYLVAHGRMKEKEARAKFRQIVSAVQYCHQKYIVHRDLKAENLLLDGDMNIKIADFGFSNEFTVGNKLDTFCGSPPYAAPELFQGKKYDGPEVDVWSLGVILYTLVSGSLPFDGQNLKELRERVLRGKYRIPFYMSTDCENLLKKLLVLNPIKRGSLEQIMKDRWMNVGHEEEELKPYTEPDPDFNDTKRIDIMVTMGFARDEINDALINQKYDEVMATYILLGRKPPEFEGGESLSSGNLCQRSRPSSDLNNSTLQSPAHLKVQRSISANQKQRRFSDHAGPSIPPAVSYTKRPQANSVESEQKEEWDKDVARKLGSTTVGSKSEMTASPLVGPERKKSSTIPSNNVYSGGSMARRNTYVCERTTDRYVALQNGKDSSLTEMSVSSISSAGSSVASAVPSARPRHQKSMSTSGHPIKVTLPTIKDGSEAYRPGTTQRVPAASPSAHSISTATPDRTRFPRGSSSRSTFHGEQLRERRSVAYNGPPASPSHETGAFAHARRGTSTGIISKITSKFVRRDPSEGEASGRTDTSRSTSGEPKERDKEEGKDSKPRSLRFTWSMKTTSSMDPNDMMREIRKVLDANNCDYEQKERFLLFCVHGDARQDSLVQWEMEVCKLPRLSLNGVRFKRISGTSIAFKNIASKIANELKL", "experiment": "SelectScreen Z'LYTE kinase profiling", "type": "biochemical", "details": "ATP at apparent KM", "procedure": "as §1, §2, §3, §4, §5, §6"}, "ERBB2 (HER2)": {"biological_target": "ERBB2 (HER2) (Homo sapiens, UniProt P04626)", "sequence (P04626 23-1255)": "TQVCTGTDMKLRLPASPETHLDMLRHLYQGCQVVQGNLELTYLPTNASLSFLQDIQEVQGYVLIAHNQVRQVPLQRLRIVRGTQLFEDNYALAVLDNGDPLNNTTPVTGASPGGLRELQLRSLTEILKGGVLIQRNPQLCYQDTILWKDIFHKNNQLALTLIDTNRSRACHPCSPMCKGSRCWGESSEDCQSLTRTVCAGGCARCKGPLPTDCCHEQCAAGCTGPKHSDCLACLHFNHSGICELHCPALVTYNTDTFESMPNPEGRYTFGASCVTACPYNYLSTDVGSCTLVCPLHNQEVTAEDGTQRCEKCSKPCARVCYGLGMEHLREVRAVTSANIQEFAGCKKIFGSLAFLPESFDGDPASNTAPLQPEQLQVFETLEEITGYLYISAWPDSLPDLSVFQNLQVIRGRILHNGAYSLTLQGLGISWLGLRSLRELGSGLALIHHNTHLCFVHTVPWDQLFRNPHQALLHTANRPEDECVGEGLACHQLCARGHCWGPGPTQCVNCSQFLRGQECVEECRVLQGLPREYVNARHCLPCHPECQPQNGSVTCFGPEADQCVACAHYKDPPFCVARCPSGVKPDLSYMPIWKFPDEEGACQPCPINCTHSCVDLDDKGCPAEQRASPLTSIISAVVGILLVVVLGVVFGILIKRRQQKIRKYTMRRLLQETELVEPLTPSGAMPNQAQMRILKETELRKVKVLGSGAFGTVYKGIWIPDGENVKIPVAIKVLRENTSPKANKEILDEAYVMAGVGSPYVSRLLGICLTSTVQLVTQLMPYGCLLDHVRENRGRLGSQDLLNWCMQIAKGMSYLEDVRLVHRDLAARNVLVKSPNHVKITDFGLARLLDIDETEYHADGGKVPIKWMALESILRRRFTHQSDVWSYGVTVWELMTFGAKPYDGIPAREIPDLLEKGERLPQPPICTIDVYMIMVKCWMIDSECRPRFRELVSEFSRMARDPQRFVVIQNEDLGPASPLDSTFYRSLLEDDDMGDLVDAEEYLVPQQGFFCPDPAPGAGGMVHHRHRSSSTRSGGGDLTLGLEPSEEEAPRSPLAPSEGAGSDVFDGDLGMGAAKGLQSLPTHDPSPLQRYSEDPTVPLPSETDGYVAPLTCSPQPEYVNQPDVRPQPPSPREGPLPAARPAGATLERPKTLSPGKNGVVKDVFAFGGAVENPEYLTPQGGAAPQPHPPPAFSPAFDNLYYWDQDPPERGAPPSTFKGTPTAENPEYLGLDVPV", "experiment": "SelectScreen Z'LYTE kinase profiling", "type": "biochemical", "details": "ATP at apparent KM", "procedure": "as §1, §2, §3, §4, §5, §6"}, "BRSK1 (SAD1)": {"biological_target": "T2, BRSK1 (SAD1) (Homo sapiens, UniProt Q8TDC3)", "T2 sequence (Q8TDC3 1-778)": "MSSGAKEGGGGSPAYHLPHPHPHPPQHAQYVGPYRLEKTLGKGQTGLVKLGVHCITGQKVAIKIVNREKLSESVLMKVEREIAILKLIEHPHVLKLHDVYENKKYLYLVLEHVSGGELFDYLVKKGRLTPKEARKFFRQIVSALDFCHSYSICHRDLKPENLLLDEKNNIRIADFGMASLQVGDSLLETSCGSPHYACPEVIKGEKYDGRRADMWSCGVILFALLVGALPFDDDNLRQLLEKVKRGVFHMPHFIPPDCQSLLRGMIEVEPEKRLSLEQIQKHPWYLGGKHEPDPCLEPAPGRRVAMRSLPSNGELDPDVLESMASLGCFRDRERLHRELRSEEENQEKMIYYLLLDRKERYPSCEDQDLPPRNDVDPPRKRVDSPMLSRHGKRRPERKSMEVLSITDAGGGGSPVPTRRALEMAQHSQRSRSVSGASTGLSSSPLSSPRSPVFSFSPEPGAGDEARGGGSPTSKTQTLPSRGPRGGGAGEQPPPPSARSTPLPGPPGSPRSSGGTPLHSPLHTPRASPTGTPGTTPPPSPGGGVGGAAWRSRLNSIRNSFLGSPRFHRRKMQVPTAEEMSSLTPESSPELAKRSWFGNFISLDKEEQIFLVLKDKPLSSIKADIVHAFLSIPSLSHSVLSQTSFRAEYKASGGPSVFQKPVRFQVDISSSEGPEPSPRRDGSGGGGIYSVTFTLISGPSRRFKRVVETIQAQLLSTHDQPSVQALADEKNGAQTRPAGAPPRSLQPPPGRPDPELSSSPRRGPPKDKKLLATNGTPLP", "experiment": "SelectScreen Z'LYTE kinase profiling", "type": "biochemical", "details": "ATP at apparent KM", "procedure": "as §1, §2, §3, §4, §5, §6"}, "PAK1": {"biological_target": "PAK1 (Homo sapiens, UniProt Q13153)", "sequence (Q13153 whole entry)": "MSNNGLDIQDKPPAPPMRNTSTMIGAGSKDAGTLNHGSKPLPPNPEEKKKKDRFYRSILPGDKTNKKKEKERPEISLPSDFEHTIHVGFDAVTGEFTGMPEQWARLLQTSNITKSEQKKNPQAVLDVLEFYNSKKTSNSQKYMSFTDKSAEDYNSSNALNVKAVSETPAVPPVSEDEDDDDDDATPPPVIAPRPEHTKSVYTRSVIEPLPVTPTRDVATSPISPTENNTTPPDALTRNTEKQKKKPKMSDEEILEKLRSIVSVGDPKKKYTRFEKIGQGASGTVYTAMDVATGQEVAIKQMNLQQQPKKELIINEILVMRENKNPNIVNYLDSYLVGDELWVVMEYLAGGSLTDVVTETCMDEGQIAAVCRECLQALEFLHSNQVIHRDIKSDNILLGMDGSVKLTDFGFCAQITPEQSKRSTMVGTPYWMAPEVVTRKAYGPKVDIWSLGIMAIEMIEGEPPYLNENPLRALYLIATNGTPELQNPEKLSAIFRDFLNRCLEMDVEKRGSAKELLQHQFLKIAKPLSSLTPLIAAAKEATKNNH", "experiment": "SelectScreen Z'LYTE kinase profiling", "type": "biochemical", "details": "ATP at apparent KM", "procedure": "as §1, §2, §3, §4, §5, §6"}, "PDGFRA (PDGFR alpha)": {"biological_target": "PDGFRA (PDGFR alpha) (Homo sapiens, UniProt P16234)", "experiment": "SelectScreen Z'LYTE kinase profiling", "type": "biochemical", "details": "ATP at apparent KM", "procedure": "as §1, §2, §3, §4, §5, §6"}, "PRKCI (PKC iota)": {"biological_target": "T3, PRKCI (PKC iota) (Homo sapiens, UniProt P41743)", "T3 sequence (P41743 1-596)": "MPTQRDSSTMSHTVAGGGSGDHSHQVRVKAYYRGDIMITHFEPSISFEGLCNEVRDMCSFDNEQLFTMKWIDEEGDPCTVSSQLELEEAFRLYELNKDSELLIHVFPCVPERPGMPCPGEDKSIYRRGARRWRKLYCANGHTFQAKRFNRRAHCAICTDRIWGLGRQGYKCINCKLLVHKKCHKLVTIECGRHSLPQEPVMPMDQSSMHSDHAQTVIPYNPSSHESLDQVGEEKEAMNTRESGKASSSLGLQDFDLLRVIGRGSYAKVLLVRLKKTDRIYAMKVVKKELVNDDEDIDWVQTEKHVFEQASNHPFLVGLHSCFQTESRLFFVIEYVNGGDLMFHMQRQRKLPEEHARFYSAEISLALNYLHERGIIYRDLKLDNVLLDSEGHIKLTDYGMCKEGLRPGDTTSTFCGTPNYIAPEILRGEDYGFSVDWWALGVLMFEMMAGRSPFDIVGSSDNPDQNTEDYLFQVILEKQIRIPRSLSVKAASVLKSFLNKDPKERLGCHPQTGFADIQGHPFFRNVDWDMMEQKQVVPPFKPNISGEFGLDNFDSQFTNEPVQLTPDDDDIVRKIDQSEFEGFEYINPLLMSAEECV", "experiment": "SelectScreen Z'LYTE kinase profiling", "type": "biochemical", "details": "ATP at apparent KM", "procedure": "as §1, §2, §3, §4, §5, §6"}, "[1]": {"experiment": "Phase I metabolic stability assay", "details": "human, liver microsomes", "procedure": "For this purpose, we used a microsomal stability assay that is a good predictor for phase I metabolic stability.[50]\nMetabolic stability under oxidative conditions was determined by LCMS-based measuring of\ndegradation of compounds at 3 µM in human and murine liver microsomes over 60 minutes at 37 °C\nCalculating the compound half-life t1/2, the in vitro intrinsic clearance CLint is"}, "ALK": {"biological_target": "ALK (Homo sapiens, UniProt Q9UM73)", "sequence (Q9UM73 19-1620)": "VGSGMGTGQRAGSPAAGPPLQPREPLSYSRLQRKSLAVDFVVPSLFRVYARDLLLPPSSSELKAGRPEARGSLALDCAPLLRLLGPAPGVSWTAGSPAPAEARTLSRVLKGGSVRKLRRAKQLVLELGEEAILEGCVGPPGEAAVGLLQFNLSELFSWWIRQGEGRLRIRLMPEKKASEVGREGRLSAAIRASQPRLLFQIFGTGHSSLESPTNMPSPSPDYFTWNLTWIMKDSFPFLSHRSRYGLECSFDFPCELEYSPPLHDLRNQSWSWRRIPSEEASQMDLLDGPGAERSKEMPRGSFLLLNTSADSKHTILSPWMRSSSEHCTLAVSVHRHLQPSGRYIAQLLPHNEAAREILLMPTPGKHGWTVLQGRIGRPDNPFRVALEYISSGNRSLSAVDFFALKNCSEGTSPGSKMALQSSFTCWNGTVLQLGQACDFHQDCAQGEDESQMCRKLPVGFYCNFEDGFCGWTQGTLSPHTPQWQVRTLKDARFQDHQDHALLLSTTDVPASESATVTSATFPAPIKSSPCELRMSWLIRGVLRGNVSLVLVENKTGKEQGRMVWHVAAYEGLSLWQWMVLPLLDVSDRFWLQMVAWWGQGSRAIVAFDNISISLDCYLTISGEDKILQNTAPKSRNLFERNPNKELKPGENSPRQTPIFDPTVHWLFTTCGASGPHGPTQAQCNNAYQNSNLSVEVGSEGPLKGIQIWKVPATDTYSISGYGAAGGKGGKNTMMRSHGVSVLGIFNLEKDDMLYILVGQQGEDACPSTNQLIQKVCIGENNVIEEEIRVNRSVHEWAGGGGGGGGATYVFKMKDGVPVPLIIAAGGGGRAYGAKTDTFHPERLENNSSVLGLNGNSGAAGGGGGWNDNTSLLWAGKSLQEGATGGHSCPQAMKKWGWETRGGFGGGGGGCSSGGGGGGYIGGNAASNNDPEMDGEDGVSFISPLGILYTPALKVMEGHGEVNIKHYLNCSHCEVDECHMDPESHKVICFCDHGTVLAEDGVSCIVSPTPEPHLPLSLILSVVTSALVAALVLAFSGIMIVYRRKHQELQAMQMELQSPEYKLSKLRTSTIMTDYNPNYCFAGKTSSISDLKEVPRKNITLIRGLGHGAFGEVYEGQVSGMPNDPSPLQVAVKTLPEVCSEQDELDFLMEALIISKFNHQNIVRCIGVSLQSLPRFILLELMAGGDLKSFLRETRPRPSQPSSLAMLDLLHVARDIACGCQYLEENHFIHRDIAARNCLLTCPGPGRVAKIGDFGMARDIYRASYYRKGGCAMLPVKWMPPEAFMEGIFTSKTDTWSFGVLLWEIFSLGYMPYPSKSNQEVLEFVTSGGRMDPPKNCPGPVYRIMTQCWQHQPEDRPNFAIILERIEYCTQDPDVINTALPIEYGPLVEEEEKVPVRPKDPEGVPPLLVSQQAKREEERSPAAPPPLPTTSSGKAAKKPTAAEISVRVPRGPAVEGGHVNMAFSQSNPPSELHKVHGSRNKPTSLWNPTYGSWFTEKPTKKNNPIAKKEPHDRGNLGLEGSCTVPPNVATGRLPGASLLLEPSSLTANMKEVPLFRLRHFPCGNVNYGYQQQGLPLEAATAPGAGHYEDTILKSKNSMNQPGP", "experiment": "SelectScreen Z'LYTE kinase profiling", "type": "biochemical", "details": "ATP at apparent KM", "procedure": "as §1, §2, §3, §4, §5, §6"}},
  "data": [
    {"compound": "C=CC(=O)Nc1ccc2c(c1)n(C1CCN(Cc3ccc(-c4nc5cc[nH]c(=O)c5cc4-c4ccccc4)cc3)CC1)c(=O)n2C", "note": "[24b]", "values": [
      {"measurement": "inhibition at 1 µM", "setting": "NEK1", "value": -7, "unit": "%"},
      {"measurement": "inhibition at 1 µM", "setting": "MARK1 (MARK)", "value": 2, "unit": "%"},
      {"measurement": "inhibition at 1 µM", "setting": "ERBB2 (HER2)", "value": -1, "unit": "%"},
      {"measurement": "inhibition at 1 µM", "setting": "BRSK1 (SAD1)", "value": 2, "unit": "%"},
      {"measurement": "inhibition at 1 µM", "setting": "PAK1", "value": 12, "unit": "%"},
      {"measurement": "inhibition at 1 µM", "setting": "PDGFRA (PDGFR alpha)", "value": -5, "unit": "%"},
      {"measurement": "inhibition at 1 µM", "setting": "PRKCI (PKC iota)", "value": 3, "unit": "%"},
      {"measurement": "half-life at 1 h, 3 µM", "setting": "[1]", "value": 25, "unit": "min"},
      {"measurement": "microsomal CLint at 3 µM", "setting": "[1]", "value": 19, "unit": "µL/min/mg"},
      {"measurement": "inhibition at 1 µM", "setting": "ALK", "value": -3, "unit": "%"}
    ]},
    {"compound": "C=CC(=O)Nc1cccc(C(=O)NC2CCN(Cc3ccc(-c4nc5cc[nH]c(=O)c5cc4-c4ccccc4)cc3)CC2)c1", "note": "[30b]", "values": [
      {"measurement": "inhibition at 1 µM", "setting": "NEK1", "value": -2, "unit": "%"},
      {"measurement": "inhibition at 1 µM", "setting": "MARK1 (MARK)", "value": 5, "unit": "%"},
      {"measurement": "inhibition at 1 µM", "setting": "ERBB2 (HER2)", "value": -2, "unit": "%"},
      {"measurement": "inhibition at 1 µM", "setting": "BRSK1 (SAD1)", "value": 7, "unit": "%"},
      {"measurement": "inhibition at 1 µM", "setting": "PAK1", "value": 4, "unit": "%"},
      {"measurement": "inhibition at 1 µM", "setting": "PDGFRA (PDGFR alpha)", "value": -7, "unit": "%"},
      {"measurement": "inhibition at 1 µM", "setting": "PRKCI (PKC iota)", "value": -9, "unit": "%"},
      {"measurement": "half-life at 1 h, 3 µM", "setting": "[1]", "value": 58, "unit": "min"},
      {"measurement": "microsomal CLint at 3 µM", "setting": "[1]", "value": 8, "unit": "µL/min/mg"},
      {"measurement": "inhibition at 1 µM", "setting": "ALK", "value": 1, "unit": "%"}
    ]},
    {"compound": "C=CC(=O)Nc1cc(NC(=O)NC2CCN(Cc3ccc(-c4nc5cc[nH]c(=O)c5cc4-c4ccccc4)cc3)CC2)ccc1Cl", "note": "[compound 27]", "values": [
      {"measurement": "inhibition at 1 µM", "setting": "NEK1", "value": -1, "unit": "%"},
      {"measurement": "inhibition at 1 µM", "setting": "MARK1 (MARK)", "value": 7, "unit": "%"},
      {"measurement": "inhibition at 1 µM", "setting": "ERBB2 (HER2)", "value": 0, "unit": "%"},
      {"measurement": "inhibition at 1 µM", "setting": "BRSK1 (SAD1)", "value": 16, "unit": "%"},
      {"measurement": "inhibition at 1 µM", "setting": "PAK1", "value": -2, "unit": "%"},
      {"measurement": "inhibition at 1 µM", "setting": "PDGFRA (PDGFR alpha)", "value": 0, "unit": "%"},
      {"measurement": "inhibition at 1 µM", "setting": "PRKCI (PKC iota)", "value": 5, "unit": "%"},
      {"measurement": "half-life at 1 h, 3 µM", "setting": "[1]", "value": 19, "unit": "min"},
      {"measurement": "microsomal CLint at 3 µM", "setting": "[1]", "value": 24, "unit": "µL/min/mg"},
      {"measurement": "inhibition at 1 µM", "setting": "ALK", "value": 2, "unit": "%"}
    ]}
  ]
}
